Data: ChEMBL document CHEMBL1153619, “The role of phenolic hydroxy groups in the free radical scavenging activity of betalains” (J Nat Prod, 2009)

Tests used:
[1] = ABTS radical scavenging activity assessed as Trolox equivalent antioxidant capacity index at pH 7 by spectrophotometry; type: physicochemical
[2] = Antioxidant activity assessed as Trolox molar equivalence for reduction of Fe(III) at pH 3.6 by ferric reducing antioxidant power assay; type: functional

| Compound | Activity [1] | Activity [2] |
| --- | --- | --- |
| O=C(O)C1=C/C(=C\C=N/CCc2cccc(O)c2)C[C@@H](C(=O)O)N1 | 4.1 | 2.7 |
| O=C(O[C@@H]1Cc2c(O)cc(O)cc2O[C@@H]1c1cc(O)c(O)c(O)c1)c1cc(O)c(O)c(O)c1 [EPIGALOCATECHIN GALLATE] | 4.8 |  |
| Oc1ccc(/C=C/c2cc(O)cc(O)c2)cc1 [RESVERATROL] | 2.7 |  |
| CCC/N=C\C=C1/C=C(C(=O)O)N[C@H](C(=O)O)C1 |  | 1.1 |
| O=C(O)C1=C/C(=C\C=N/CCc2ccc(O)c(O)c2)C[C@@H](C(=O)O)N1 |  | 3.3 |
| O=C(O)C1=C/C(=C\C=N/CCc2ccc(O)cc2)C[C@@H](C(=O)O)N1 | 4 | 1.1 |
| O=C(O)C1=C/C(=C\C=N/CCc2ccccc2)C[C@@H](C(=O)O)N1 | 2.3 | 1.1 |
